From patent publication US10526357B2, “Pharmaceutical compounds” (Rafael Pharmaceuticals, Inc., priority 2014, dated 2020) come the findings set out here.

Format in all cases: cell-based
Experiment [1] has as its system BXPC3 human pancreatic cancer cells. Description: CellTiter Glo (CTG) cell viability assay, in vitro cell killing, BXPC3. Particulars: 24 h treatment, 0.5% serum and 0.05% DMSO, relative to untreated control; for viability at 50 µM: BXPC-3, 50 μM, read-out: % avg live cells @ 50 μM (% Viable Cells Remaining); for viability at 100 µM: BXPC-3, 100 μM, read-out: % avg live cells @ 100 μM (% Viable Cells Remaining). The text has this:
(§1) The objective of this investigation was to assess the in vitro cell killing activities of analogs of lipoic acid in BXPC3 human pancreatic, H460 non small lung carcinoma, and SF539 human gliosarcoma cancer cells.
(§2) Three human tumor cell types, BXPC3 human pancreatic cancer, H460 non small lung carcinoma, and SF539 human gliosarcoma, were used in this investigation. The BXPC3 and H460 cells were originally obtained from American Type Cell Culture (ATCC). The SF539 cells were originally obtained from the NCI AIDS and Cancer Specimen Bank (ACSB). All tumor cells were maintained at 37° C. in a humidified 5% CO2 atmosphere in T75 tissue culture flasks containing 20 mL of Roswell Park Memorial Institute (RPMI) 1640 containing 2 mM L-glutamine, 10% FBS and 1% penicillin and streptomycin (100 IU/mL penicillin and 100 μg/mL streptomycin). The tumor cells were split at a ratio of 1:5 every 4-5 days by trypsinization and resuspended in fresh medium in a new flask. Cells were harvested for experiments at 70-90% confluency.
(§3) Stock solutions of each analog were prepared at a concentration of 200 and 100 mM in DMSO. Five μL of this solution was diluted in 10.0 mL of 0.5% serum containing RPMI media to give the desired 100 μM and 50 μM solutions in 0.05% DMSO.
(§4) The cancer cells were seeded at 4000 cells/well for H460 cells and 6000 cells/well for BXPC3 and SF 539 cells and incubated 24 hours. The killing activity of analogs was assayed at 50 μM and 100 μM concentrations. The tumor cells were treated for 24 hours with the test article, and after 24 hours of treatment the number of viable tumor cells was determined using the CTG assay.
(§5) The number of cells targeted for the study is 4×10^3 per well for H460 cells and 6×10^3 per well for BXPC3 and SF539 cells in 100 μL of medium. The actual number of cells were counted and seeded in the wells of a 96 well-plate. The cells were incubated for approximately 24 hours before addition of test article.
(§6) The media in the plate was removed by aspiration, and 100 μL of the test article at a final concentration of 50 μM or 100 μM was added to the cells. After exposure to the test articles for 24 hours, the number of viable cells in each well was determined and the percent of viable cells relative to control (in the absence of test article) were calculated. Additionally, a set of wells was treated with cell culture medium in the absence of cells to obtain a value for background luminescence. A separate set of cells was seeded at the same time in a clear 96-well plate and observed under the microscope at 24 hours, following addition of the test article to estimate the amount of cells present after treatment.
(§7) The number of viable cells was determined by using the CTG assay. Specifically, reagents were mixed and allowed to come to room temperature according to instructions from Promega, Inc. (Madison, Wis.). Cell plates were removed from the cell culture incubator and left on the bench for thirty minutes until they reached room temperature. 100 μL per well of CTG reagent was added with the 12-channel Eppendorf pipettor. The cells were lysed by shaking the plate for two minutes in a shaker. The cells were kept in room temperature for ten minutes to stabilize the luminescent signal. The luminescence was measured using the FLUOstar OPTIMA plate reader (BMG Labtech, Inc., Durham, N.C.).
(§8) Data from luminescence readings was copied onto EXCEL spreadsheets, and cell growth relative to untreated cells was calculated, using the following equation: […]

Experiment [2] concerns H460 non small lung carcinoma cells. The experiment can be described thus: CellTiter Glo (CTG) cell viability assay, in vitro cell killing, H460. The conditions noted are these: Homo sapiens, 24 h treatment, 0.5% serum and 0.05% DMSO, relative to untreated control; for viability at 50 µM: NCI-H460, 50 μM, read-out: % avg live cells @ 50 μM (% Viable Cells Remaining); for viability at 100 µM: NCI-H460, 100 μM, read-out: % avg live cells @ 100 μM (% Viable Cells Remaining).
From the text: as §1, §2, §3, §4, §5, §6, §7, §8

The subject of experiment [3] is SF539 human gliosarcoma cells. The experiment can be described thus: CellTiter Glo (CTG) cell viability assay, in vitro cell killing, SF539. The conditions noted are these: 24 h treatment, 0.5% serum and 0.05% DMSO, relative to untreated control; for viability at 50 µM: SF-539, 50 μM, read-out: % avg live cells @ 50 μM (% Viable Cells Remaining); for viability at 100 µM: SF-539, 100 μM, read-out: % avg live cells @ 100 μM (% Viable Cells Remaining).
From the text: as §1, §2, §3, §4, §5, §6, §7, §8
In general terms: In ATP-based viability assays light output follows the ATP content of the culture.

Each structure is given as a SMILES string.

For the compound `CCCCCCC(CCSCc1ccccc1)SCc1ccccc1` (stereo not drawn) [A], the viability at 50 µM in experiment [1] stood at 84%; in experiment [2], 89%; in experiment [3] it was 100%. In addition, the viability at 100 µM in experiment [1] is 75%; in experiment [2], 70%; in experiment [3], 98%.

In the case of `COCCCCCC(CCSCc1ccccc1)SCc1ccccc1` (stereo not drawn) [B], the viability at 50 µM in experiment [1] was 84%; in experiment [2], 97%; in experiment [3], 99%. In addition, the viability at 100 µM was 91% in experiment [1], 67% in experiment [2] and 99% in experiment [3].

`N#CCCCCC(CCSCc1ccccc1)SCc1ccccc1` (stereo not drawn) [C]: the viability at 50 µM was found to be 70.9% in experiment [1], 69.8% in experiment [2] and 74.9% in experiment [3]. In addition, the figures for the viability at 100 µM in experiment [1], in experiment [2] and in experiment [3] were 36.1%, 27.1% and 23.2%, respectively.

As to `c1ccc(CSCCC(CCCCc2nn[nH]n2)SCc2ccccc2)cc1` (stereo not drawn) [D], the values for the viability at 50 µM in experiment [1], in experiment [2] and in experiment [3] were 0.3%, 4.1% and 2.1%, respectively. Further, the viability at 100 µM in experiment [1] came to 3.9%; in experiment [2] it was 2.7%; in experiment [3], 0.1%.

`O=S(=O)(O)CCCCC(CCSCc1ccccc1)SCc1ccccc1` (stereo not drawn) [E]: the viability at 50 µM in experiment [1], in experiment [2] and in experiment [3] was 0% throughout. In addition, the viability at 100 µM in experiment [1] worked out at 0%; in experiment [2], 0.3%; in experiment [3], 0%.

With `O=C(O)CCOCC(CCSCc1ccccc1)SCc1ccccc1` (stereo not drawn) [G], the viability at 50 µM in experiment [1] came to 99.7%; in experiment [2] it was 102%; in experiment [3], 91.6%. In addition, the results for the viability at 100 µM in experiment [1], in experiment [2] and in experiment [3] were 41.7%, 37.6% and 30.3%, respectively.
